pIC50: −log10 of the molar value.

The test deals with γ-glutamyl carboxylation reaction (human Gas6 in Gas6-HEK293 cells). The test can be described thus: Inhibitory action on γ-glutamyl carboxylation reaction (secreted γ-glutamyl carboxylated Gas6 by ELISA). The class given is cell-based. Particulars: vitamin K2 100 nM, exposure 18 to 20 hours, ELISA absorbance at 620 nm, read-out: IC50 (50% inhibitory concentration for the γ-glutamyl carboxylation reaction). The method, then:
Measurement of Inhibitory Action on γ-Glutamyl Carboxylation Reaction
Cells were used that expressed Gas6 excreted outside the cells when subjected to γ-glutamyl carboxylation, and inhibitory action on γ-glutamyl carboxylation reaction was assessed by measuring the secreted amount of extracellular Gas6 by ELISA method.
(A) Preparation for Assay Plate Containing Solid-Phase Anti-Human Gas6 Antibody
Goat anti-human Gas6 antibody (R&D Systems, Inc.) was diluted to 1 μg/ml with Dulbecco's phosphate-buffered saline, and 40 μl aliquots thereof were dispensed into each well of a 384-well microplate. After immobilizing the antibody to the solid phase by allowing it to stand at 4° C. overnight or at room temperature for 2 hours or more, each well was washed three times with wash buffer (10 mM Tris-HCl pH 7.4, 150 mM sodium chloride, 0.05% Tween20). After removing the supernatant, 80 μl aliquots of a 1% aqueous solution of Block Ace (Dainippon Sumitomo Pharma) were dispensed into each well and allowed to react at room temperature for 1 hour or more.
(B) Exposure of Test Compounds to Cells Stably Expressing Human Gas6
Cells that stably express human Gas6 (Gas6-HEK293), which were prepared by inserting human Gas6 gene (inserted between SalI and NotI within multiple cloning sites of pCIneo expression vector) into HEK293 cells, were grown and sub-cultured using Dulbecco's modified Eagle's medium (DMEM) containing 10% fetal calf serum (FCS). On the day before ELISA measurement, the Gas6-HEK293 cells were detached with trypsin-EDTA, dispersed in DMEM containing 10% FCS, and disseminated into each well of a 384-well, collagen type I-coated plate (Becton-Dickinson) in 30 μl aliquots containing 1.0×10^4 cells each, followed by culturing for 3 to 4 hours at 5% CO2 and 37° C. 30 μl aliquots of DMEM containing test compound solutions, prepared at various concentrations by dissolving in DMSO, and vitamin K2 at 0.1% and 100 nM, respectively (indicating final concentrations in both cases) were added to each well followed by additionally culturing for 18 to 20 hours.
(C) Quantification of γ-Glutamyl Carboxylated Gas6 by ELISA and Calculation of 50% Inhibitory Concentrations of γ-Glutamyl Carboxylation Reaction
After removing the 1% Block Ace aqueous solution from the preliminarily prepared assay plates containing solid phase anti-human Gas6 antibody, the culture supernatant of Gas6-HEK293 cells exposed to the test compounds was collected and 40 μl aliquots were dispensed into each well followed by allowing to react at room temperature for 2 hours (Step 1). The culture supernatant was removed and each well was washed three times with wash buffer. Thereafter, the same washing procedure was carried out between Steps 2 and 3 and Steps 3 and 4. Subsequently, 40 μl aliquots of mouse anti-human […] antibody (American Diagnostica inc.), adjusted to 0.5 μg/ml with immunoreaction buffer (100 mM Tris-HCl pH 7.4, 0.05% Tween20, 0.1% Block Ace), were dispensed into each well and allowed to react at room temperature for 1 hour (Step 2). Next, 40 μl aliquots of alkaline phosphatase-conjugated anti-mouse IgG antibody adjusted to 1.0 μg/ml with immunoreaction buffer were dispensed into each well and allowed to react at room temperature for 1 hour (Step 3). 40 μl aliquots of BluePhos Microwell (KPL) were dispensed into each well, and after incubating at room temperature for 10 minutes (Step 4), 20 μl aliquots of 5% EDTA were added to each well to stop the color development reaction, followed by measurement of absorbance at 620 nm (Step 5). […]
On to `COc1ccc(OC2CCN(C(=O)[C@@H](NC(=O)c3nc4ccccc4nc3O)C(C)C)CC2)cn1` [Example 86, 3-Hydroxy-N-[(1S)-1-({4-[(6-methoxypyridin-3-yl)oxy]piperidin-1-yl}carbonyl)-2-methylpropyl]quinoxaline-2-carboxamide], for which the pIC50 was 9.15.

`Cc1nc2ccc(OC3CCN(C(=O)[C@@H](NC(=O)c4nc5ccccc5nc4O)C(C)C)CC3)cc2s1` [Example 91, 3-Hydroxy-N-[(1S)-2-methyl-1-({4-[(2-methyl-1,3-benzothiazol-6-yl)oxy]piperidin-1-yl}carbonyl)propyl]quinoxaline-2-carboxamide]: the pIC50 is 8.42.

For the molecule `CC(C)[C@H](NC(=O)c1nc2ccccc2nc1O)C(=O)N1CCC(Oc2ncc(C(F)(F)F)cn2)CC1` [Example 94, 3-Hydroxy-N-{(1S)-2-methyl-1-[(4-{[5-(trifluoromethyl)pyrimidin-2-yl]oxy}piperidin-1-yl)carbonyl]propyl}quinoxaline-2-carboxamide], the pIC50 is 8.57.

For `CC(C)[C@H](NC(=O)c1nc2ccccc2nc1O)C(=O)N1CCC(Oc2ncc(N3CCCCC3)cn2)CC1` [Example 96, 3-Hydroxy-N-[(1S)-2-methyl-1-({4-[(5-piperidin-1-ylpyrimidin-2-yl)oxy]piperidin-1-yl}carbonyl)propyl]quinoxaline-2-carboxamide], the pIC50 is 8.02.

With `CC(C)[C@H](NC(=O)c1nc2ccccc2nc1O)C(=O)N1CCC(Oc2cnc(N3CCCCC3)nc2)CC1` [Example 97, 3-Hydroxy-N-[(1S)-2-methyl-1-({4-[(2-piperidin-1-ylpyrimidin-5-yl)oxy]piperidin-1-yl}carbonyl)propyl]quinoxaline-2-carboxamide], the pIC50 is 8.35.

On to `CC(C)[C@H](NC(=O)c1nc2ccccc2nc1O)C(=O)N1CCC(C(=O)c2ccc(F)cc2F)CC1` [Example 98, N-[(1S)-1-{[4-(2,4-Difluorobenzoyl)piperidin-1-yl]carbonyl}-2-methylpropyl]-3-hydroxyquinoxaline-2-carboxamide], for which the pIC50 was 8.46.

As for `CC(C)[C@H](NC(=O)c1nc2ccccc2nc1O)C(=O)N1CCC(C(O)c2ccc(F)cc2F)CC1` (stereo partly drawn) [Example 99, N-[(1S)-1-({4-[(2,4-Difluorophenyl)(hydroxy)methyl]piperidin-1-yl}carbonyl)-2-methylpropyl]-3-hydroxyquinoxaline-2-carboxamide], the pIC50 was 8.31.

In the case of `CC(C)[C@H](NC(=O)c1nc2ccccc2nc1O)C(=O)N1CCC(Oc2ccc(C(F)(F)F)nn2)CC1` [Example 100, 3-Hydroxy-N-{(1S)-2-methyl-1-[(4-{[6-(trifluoromethyl)pyridazin-3-yl]oxy}piperidin-1-yl)carbonyl]propyl}quinoxaline-2-carboxamide], the pIC50 was 7.98.

Source of the values: patent US20110053933A1, “HYDROXYQUINOXALINECARBOXAMIDE DERIVATIVE” (DAIICHI SANKYO COMPANY, LIMITED, priority 2008, published 2011).
